# Source: PubChem BioAssay AID2060885 (Molecular Pharmacology Branch, DTP, NCI, 2025)
# Test system: NCI-H23 complex spheroids with HUVEC/MSC, viability
# Experiment: Anticancer human tumor NCI-H23 cell line growth inhibition [RAS];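 note: spheroids exposed to compound for 7 days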;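 for viability, T/C: 100% = DMSO vehicle control viability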
# Details: for viability, T/C: stronger effect = lower value
# How it was run: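 Agents were tested in combination matrices in half-log decrements from a top concentration at or near clinical Cmax (10 microM if undetermined). Targets were multi-cell spheroids of tumour lines plus HUVEC and MSC stromal cells.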
# [1] = curve of first compound, second compound 0.000949 µM
# [2] = curve of first compound, second compound 0.003 µM
# [3] = curve of first compound, second compound 0.00949 µM
# [4] = curve of first compound, second compound 0.03 µM
# [5] = curve of first compound, second compound 0.0949 µM
# [6] = curve of first compound, second compound 0.3 µM
compound,measurement,setting,value
CCc1c2c(nc3ccc(O)cc13)-c1cc3c(c(=O)n1C2)COC(=O)[C@]3(O)CC + CCn1c(-c2cc(N3CCN(C)CC3)cnc2C(C)OC)c2c3cc(ccc31)-c1csc(n1)CC(NC(=O)C1CC1C)C(=O)N1CCCC(N1)C(=O)OCC(C)(C)C2,IC50,[1],< 0.949 nM
same,IC50,[2],< 0.949 nM
same,IC50,[3],< 0.949 nM
same,IC50,[4],< 0.949 nM
same,IC50,[5],< 0.949 nM
same,IC50,[6],< 0.949 nM
same,"viability, T/C","second compound 0.000949 µM, first compound 0.000949 µM",40.7%
same,"viability, T/C","second compound 0.000949 µM, first compound 0.003 µM",21%
same,"viability, T/C","second compound 0.000949 µM, first compound 0.00949 µM",4.92%
same,"viability, T/C","second compound 0.000949 µM, first compound 0.03 µM",2.52%
same,"viability, T/C","second compound 0.000949 µM, first compound 0.0949 µM",1.86%
same,"viability, T/C","second compound 0.000949 µM, first compound 0.3 µM",0.88%
same,"viability, T/C","second compound 0.003 µM, first compound 0.000949 µM",32.5%
same,"viability, T/C","second compound 0.003 µM, first compound 0.003 µM",13.4%
same,"viability, T/C","second compound 0.003 µM, first compound 0.00949 µM",4.98%
same,"viability, T/C","second compound 0.003 µM, first compound 0.03 µM",1.97%
same,"viability, T/C","second compound 0.003 µM, first compound 0.0949 µM",1.43%
same,"viability, T/C","second compound 0.003 µM, first compound 0.3 µM",1.2%
same,"viability, T/C","second compound 0.00949 µM, first compound 0.000949 µM",26.2%
same,"viability, T/C","second compound 0.00949 µM, first compound 0.003 µM",11.2%
same,"viability, T/C","second compound 0.00949 µM, first compound 0.00949 µM",5.03%
same,"viability, T/C","second compound 0.00949 µM, first compound 0.03 µM",1.84%
same,"viability, T/C","second compound 0.00949 µM, first compound 0.0949 µM",1.75%
same,"viability, T/C","second compound 0.00949 µM, first compound 0.3 µM",1.2%
same,"viability, T/C","second compound 0.03 µM, first compound 0.000949 µM",20.6%
same,"viability, T/C","second compound 0.03 µM, first compound 0.003 µM",11.9%
same,"viability, T/C","second compound 0.03 µM, first compound 0.00949 µM",5.17%
same,"viability, T/C","second compound 0.03 µM, first compound 0.03 µM",2.36%
same,"viability, T/C","second compound 0.03 µM, first compound 0.0949 µM",1.52%
same,"viability, T/C","second compound 0.03 µM, first compound 0.3 µM",1.97%
same,"viability, T/C","second compound 0.0949 µM, first compound 0.000949 µM",16%
same,"viability, T/C","second compound 0.0949 µM, first compound 0.003 µM",10.9%
same,"viability, T/C","second compound 0.0949 µM, first compound 0.00949 µM",4.9%
same,"viability, T/C","second compound 0.0949 µM, first compound 0.03 µM",3.03%
same,"viability, T/C","second compound 0.0949 µM, first compound 0.0949 µM",1.77%
same,"viability, T/C","second compound 0.0949 µM, first compound 0.3 µM",2.09%
same,"viability, T/C","second compound 0.3 µM, first compound 0.000949 µM",15.7%
same,"viability, T/C","second compound 0.3 µM, first compound 0.003 µM",10.6%
same,"viability, T/C","second compound 0.3 µM, first compound 0.00949 µM",4.9%
same,"viability, T/C","second compound 0.3 µM, first compound 0.03 µM",2.44%
same,"viability, T/C","second compound 0.3 µM, first compound 0.0949 µM",2.32%
same,"viability, T/C","second compound 0.3 µM, first compound 0.3 µM",2.38%
O=C(c1ccc(F)c(F)c1Nc1ccc(I)cc1F)N1CC(O)([C@@H]2CCCCN2)C1,"viability, T/C",compound 0.0316 µM,68.2% [middle of 4 runs]
same,"viability, T/C",compound 0.1 µM,46.3% [middle of 4 runs]
same,"viability, T/C",compound 0.316 µM,34.2% [middle of 4 runs]
same,"viability, T/C",compound 1 µM,19.7% [middle of 4 runs]
same,IC50,curve of compound,78.2 nM [middle of 4 runs]
C=CC(=O)Nc1cc(Nc2nccc(-c3cn(C)c4ccccc34)n2)c(OC)cc1N(C)CCN(C)C + CCn1c(-c2cccnc2C(C)OC)c2c3cc(ccc31)N1CCOC(CC(NC(=O)C(C(C)C)N(C)C(=O)C3(F)CCN(C(=O)C#CC(C)(C)N(C)C)CC3)C(=O)N3CCCC(N3)C(=O)OCC(C)(C)C2)C1,IC50,[1],< 3.16 nM
same,IC50,[2],719 nM
same,IC50,[3],< 3.16 nM
same,IC50,[4],< 3.16 nM
same,IC50,[5],< 3.16 nM
same,IC50,[6],< 3.16 nM
same,"viability, T/C","second compound 0.000949 µM, first compound 0.00316 µM",38.8%
same,"viability, T/C","second compound 0.000949 µM, first compound 0.01 µM",38.4%
same,"viability, T/C","second compound 0.000949 µM, first compound 0.0316 µM",29%
same,"viability, T/C","second compound 0.000949 µM, first compound 0.1 µM",28.6%
same,"viability, T/C","second compound 0.000949 µM, first compound 0.316 µM",25.8%
same,"viability, T/C","second compound 0.000949 µM, first compound 1 µM",20.1%
same,"viability, T/C","second compound 0.003 µM, first compound 0.00316 µM",99.9%
same,"viability, T/C","second compound 0.003 µM, first compound 0.01 µM",44.7%
same,"viability, T/C","second compound 0.003 µM, first compound 0.0316 µM",101%
same,"viability, T/C","second compound 0.003 µM, first compound 0.1 µM",120%
same,"viability, T/C","second compound 0.003 µM, first compound 0.316 µM",102%
same,"viability, T/C","second compound 0.003 µM, first compound 1 µM",32.5%
same,"viability, T/C","second compound 0.00949 µM, first compound 0.00316 µM",35.5%
same,"viability, T/C","second compound 0.00949 µM, first compound 0.01 µM",28.9%
same,"viability, T/C","second compound 0.00949 µM, first compound 0.0316 µM",31.1%
same,"viability, T/C","second compound 0.00949 µM, first compound 0.1 µM",30.5%
same,"viability, T/C","second compound 0.00949 µM, first compound 0.316 µM",23.9%
same,"viability, T/C","second compound 0.00949 µM, first compound 1 µM",22.2%
same,"viability, T/C","second compound 0.03 µM, first compound 0.00316 µM",31.2%
same,"viability, T/C","second compound 0.03 µM, first compound 0.01 µM",26.7%
same,"viability, T/C","second compound 0.03 µM, first compound 0.0316 µM",30.9%
same,"viability, T/C","second compound 0.03 µM, first compound 0.1 µM",30.9%
same,"viability, T/C","second compound 0.03 µM, first compound 0.316 µM",18.3%
same,"viability, T/C","second compound 0.03 µM, first compound 1 µM",23.1%
same,"viability, T/C","second compound 0.0949 µM, first compound 0.00316 µM",27.1%
same,"viability, T/C","second compound 0.0949 µM, first compound 0.01 µM",28.6%
same,"viability, T/C","second compound 0.0949 µM, first compound 0.0316 µM",31%
same,"viability, T/C","second compound 0.0949 µM, first compound 0.1 µM",26.7%
same,"viability, T/C","second compound 0.0949 µM, first compound 0.316 µM",19.2%
same,"viability, T/C","second compound 0.0949 µM, first compound 1 µM",21.6%
same,"viability, T/C","second compound 0.3 µM, first compound 0.00316 µM",25.5%
same,"viability, T/C","second compound 0.3 µM, first compound 0.01 µM",26.7%
same,"viability, T/C","second compound 0.3 µM, first compound 0.0316 µM",24.6%
same,"viability, T/C","second compound 0.3 µM, first compound 0.1 µM",23%
same,"viability, T/C","second compound 0.3 µM, first compound 0.316 µM",22.9%
same,"viability, T/C","second compound 0.3 µM, first compound 1 µM",21.6%
